Key:
[1] = tested on: IEC-6 enterocytes; assay: TLR4-mediated NFkB (p65) translocation in IEC-6 enterocytes treated with LPS and MDP; assay type: cell-based; details: IEC-6 cells
Text: FIG. 23A-E. MDP prevents TLR4-mediated NFkB translocation in IEC-6 enterocytes. […] Representative of 5 separate experiments. **p<0.05 vs. control by ANOVA, *p<0.05 vs. LPS by ANOVA.
NOD2 activation with MDP inhibits TLR4 signaling in enterocytes. The next experiments were designed to determine whether NOD2 activation with MDP would inhibit TLR4 signaling in enterocytes. To do so, IEC-6 enterocytes—a cell line that represents a model system to study enterocyte biology and which expresses TLR4 (Neal et al., 2006, J Immunol 176:3070-3079)—were treated with LPS in the presence or absence of MDP. Since TLR4 signaling leads to the translocation of NFkB from the cytoplasm into the nucleus, the extent of TLR4 activation was evaluated using an immunofluorescence-based detection assay of the p65 subunit of NFkB. As is shown in FIG. 23A and quantified in FIG. 23E, in control cells, NFkB is localized in the cytoplasm. Upon treatment with LPS ([…], 1 h), NFkB was detected in the nucleus, indicative of NFkB activation (FIG. 23B).

[2] = tested on: IEC-6 cells; assay: IL-6 release from LPS-treated IEC-6 cells (ELISA); assay type: cell-based; details: IEC-6 cells in vitro
Description: (§1) FIG. 24A-C. MDP inhibits TLR4 signaling in enterocytes. A. IL-6 release in vitro as determined by ELISA in IEC-6 cells that were either untreated, or treated with LPS in the presence or absence of MDP. B. Serum IL-6 release in vivo in wild-type (open bars) and NOD2-deficient mice (solid bars) that were either pre-treated with saline or MDP then injected with LPS. C. SDS-PAGE showing the expression of phosphorylated ERK and beta-actin in IEC-6 cells that were treated with media (control), LPS, LPS with MDP, LPS with MDP-C which is a non-stimulatory analogue of MDP, and either MDP or MDP-C alone. **p<0.05 vs. control by ANOVA, *p<0.05 vs. LPS by ANOVA.
(§2) The next series of experiments were designed to further define the physiological significance of the finding that MDP reduces TLR4-mediated NFkB translocation in enterocytes, and to evaluate potential mechanisms involved. Since NFkB activation is known to lead to the release of pro-inflammatory cytokines including IL-6, experiments were performed to evaluate whether MDP would alter the extent of IL-6 release from LPS-treated IEC-6 cells. […] To determine the physiological significance of this work in vivo, wild-type and NOD2-knockout mice were injected with LPS (5 mg/kg) in the presence or absence of MDP (1 mg/kg), and serum IL-6 release—a measure of TLR4 signaling in vivo—was determined by ELISA.

[3] = tested on: wild-type and NOD2-knockout mice; assay: Serum IL-6 release in LPS-injected wild-type and NOD2-knockout mice (ELISA); assay type: in vivo, mouse; details: LPS 5 mg/kg, MDP 1 mg/kg
Description: as §1, §2

[4] = tested on: IEC-6 cells; assay: pERK expression in LPS-treated IEC-6 cells (SDS-PAGE); assay type: cell-based
Description: as §1
To further define the effects of MDP on LPS-mediated signaling in enterocytes, IEC-6 cells were treated with LPS in the presence or absence of MDP and the expression of the TLR4 downstream target pERK was assessed by SDS-PAGE. As is shown in FIG. 24C, LPS caused an increase in the expression of pERK compared with untreated cells. […] Taken together, these findings indicate that NOD2 activation with MDP leads to an inhibition of TLR4 signaling in enterocytes in vitro and in vivo.

[5] = tested on: TLR4; assay: TLR4 distribution and expression in enterocytes after MDP (immunohistochemistry, RT-PCR); assay type: in vivo, mouse
Description: FIG. 25. MDP treatment decreases TLR4 expression in enterocytes. Newborn mice were treated with LPS after pre-treatment with either saline or MDP. Three hours later mucosal scrapings were harvested from the terminal ileum, and subjected to RT-PCR for expression of TLR4. Representative of 4 separate experiments. Duplicate samples are shown for each group.
MDP treatment of enterocytes reduces the expression of TLR4. The next series of studies investigated the potential mechanisms by which MDP activation of NOD2 could lead to a reduction in the extent of TLR4 signaling.

[6] = tested on: experimental NEC in newborn mice; assay: Experimental necrotizing enterocolitis in newborn mice, MDP treatment; assay type: in vivo, mouse
Description: FIG. 26A-E. MDP prevents against the development of experimental NEC in vivo in newborn mice. Newborn mice were injected with saline or MDP daily for four days, and then were induced to develop NEC. A. Histology (H&E) of terminal ileum of breast fed mouse treated with saline control. B. Histology (H&E) of terminal ileum of breast fed mouse treated with MDP. C. Histology (H&E) of terminal ileum of mouse pre-treated with saline, after which NEC was induced. D. Histology (H&E) of terminal ileum of mouse pre-treated with MDP, after which conditions which induced NEC in saline-treated mice were applied. E: Severity of NEC in newborn mice as scored by a blinded pediatric pathologist. *p<0.05 vs. NEC in saline-injected mice. Representative of three separate experiments with over 5 animals per group.
NOD2 expression in the intestine is reduced in human and experimental necrotizing enterocolitis. […]
MDP prevents against the development of experimental necrotizing enterocolitis. […] It was also determined that mucosal NOD2 expression is decreased in experimental NEC (FIG. 22I). […]

[7] = tested on: models of ulcerative colitis; details: previous reports; cited from earlier work
[8] = tested on: experimental NEC in newborn mice; assay: Murine NEC model in NFkB-GFP transgenic mice (histology, mucosal TNF-α RTPCR, NFκB activation); assay type: in vivo, mouse
Description: FIG. 27A-G. CpG-ODN-HS and CpG-DNA reduce the development of experimental NEC in vivo in newborn mice. Newborn NEC and control mice were injected with CpG-ODN-HS or CpG-DNA. A. Histology (H&E) of terminal ileum of breast fed mouse. B. Histology (H&E) of terminal ileum of mouse after induction of NEC. C. Histology (H&E) of terminal ileum of mouse treated with CpG-DNA, after which conditions which induced NEC were applied. D. Histology (H&E) of terminal ileum of mouse treated with CpG-ODN-HS, after which conditions which induced NEC were applied. E. Histology (H&E) of terminal ileum of breast fed mouse treated with CpG-ODN-HS. F. Histology (H&E) of terminal ileum of breast fed mouse treated with CpG-DNA. G. Severity of NEC in newborn mice as scored by a blinded pediatric pathologist. *p<0.05 vs. NEC in saline-injected mice.
FIG. 28. CpG-ODN-HS and CpG-DNA reduce the expression of mucosal TNF-α in NEC newborn mice in vivo.
FIG. 29A-D. Confocal microscopy showing the extent of NFkB activation in mice with NEC in the absence or presence of CpG-ODN-HS. CpG-ODN-HS reduces the level of NFkB activation in NEC newborn mice in vivo. The mice express NFkB-GFP, and sections were stained with anti-GFP antibody (red; arrow).
The effect of the TLR9 agonist CpG-ODN 5′ […] 3′ (SEQ ID NO:10; referred to herein as CpG-ODN-HS) on the mediator of activated TLR4, NFκB, was examined in a murine NEC model (previously described, above). The effect of CpG-ODN-HS on inflammation in the NEC murine model was also examined as a measured by TNF-α expression, which is an index of inflammation.
Materials and methods. Phosphorothioated CpG-ODN-HS and oligodeoxynucleotide (ODN) 1826 ([…]) (SEQ ID NO:6; referred to herein as CpG-DNA) were synthesized by the University of Pittsburgh DNA synthesis facility. ODNs were confirmed to be endotoxin-free by Limulus assay. NFkB-GFP antibody was obtained from Santa Cruz and Abcam. The extent of nuclear translocation was determined in an adaptation of the methodology of Ding and colleagues. In brief, a threshold limit was set based upon the emission signal for the nuclear stain DRAQ5, which therefore defined a nuclear region of interest (ROI). To define a corresponding cytoplasmic region of interest, a circular region 12 pixels beyond the nucleus was stenciled upon each cell. The average integrated pixel intensity pertaining to the corresponding NFkB emission within the cytoplasmic and nuclear regions was then determined for more than 200 cells per treatment group in at least four experiments per group, using MetaMorph software version 6.1 (Molecular Devices Corporation, Downingtown, Pa.).
Mucosal TNF-α expression was measured using quantitative real-time PCR (RTPCR). Quantitative real-time PCR in cultured enterocytes and intestinal tissue using the BioRad iCycler (Biorad, Hercules, CA) was performed as in (Leaphart, C. L., J. Cavallo, S. C. Gribar, S. Cetin, J. Li, M. F. Branca, T. D. Dubowski, C. P. Sodhi, and D. J. Hackam. 2007. A Critical Role for TLR4 in the Pathogenesis of Necrotizing Enterocolitis by Modulating Intestinal Injury and Repair. J Immunology 179:4808-4820). Oligonucleotide primer pairs used for RTPCR were as follows: forward: 5′ […] 3′ (SEQ ID NO:14), reverse: 5′ […] 3′ (SEQ ID NO:15); and forward: 5′ […] 3′ (SEQ ID NO:16), reverse: 5′ […] 3′ (SEQ ID NO:17). Gene expression was normalized to β-actin expression. Where indicated, gene expression was assessed on 2.5% agarose gels using ethidium bromide staining. […]

| Compound | LPS-induced nuclear translocation of NFkB ([1]; LPS in the presence of MDP) | extent of NFkB translocation ([1]; MDP alone) | LPS-induced IL-6 release [2] | effect in reducing TLR4 signaling (serum IL-6 release) ([3]; NOD2-knockout mice) | LPS-mediated serum IL-6 release ([3]; wild-type mice) | LPS-induced pERK expression [4] | relative distribution of TLR4 in enterocytes ([5]; immunohistochemistry) | expression of TLR4 in enterocytes ([5]; newborn mice, LPS after MDP pre-treatment, terminal ileum mucosal scrapings, RT-PCR) | extent of NEC that developed (histology of terminal ileum) ([6]; NOD2-wild-type mice, MDP 1 mg/ml daily for four days, vs saline) | intestinal histology ([6]; breast fed mice, MDP alone) | degree of intestinal inflammation [7] | activation of NFκB ([8]; NEC mice expressing NFkB-GFP, confocal microscopy) | level of expression of mucosal TNF-α in terminal ileum ([8]; NEC mice, RTPCR) | NEC pathology (histology of terminal ileum) ([8]; NEC mice, treated vs untreated) |
| --- | --- | --- | --- | --- | --- | --- | --- | --- | --- | --- | --- | --- | --- | --- |
| CC(=O)N[C@@H]1[C@@H](O[C@H](C)C(=O)N[C@@H](C)C(=O)N[C@H](CCC(=O)O)C(N)=O)[C@H](O)[C@@H](CO)O[C@H]1O [MDP, muramyl-di-peptide] | reduction in nuclear translocation | did not significantly alter | significantly reduced | less pronounced | significantly reduced | significantly reduced | does not alter | significant reduction | striking reduction in the extent of NEC | did not alter intestinal histology | can limit the degree of intestinal inflammation | – | – | – |
| CC(=O)NC1C(O)OC(CO)C(O)C1OC(C)C(=O)NC(C)C(=O)NC(CCC(=O)O)C(N)=O (stereo not shown) [MDPC] | – | – | did not reduce | – | – | did not reduce | – | – | – | – | – | – | – | – |
| 5′ TCGTCGTTTTGTCGTTCCTGACGTT 3′ (listed as DNA, chemistry not fully specified) [CpG-ODN-HS, TLR9 agonist CpG-ODN] | – | – | – | – | – | – | – | – | – | – | – | reduced | reduced | inhibition of the NEC pathology |
